Results from patent US10954214B2 (Janssen Pharmaceutica NV, priority 2016, dated 2021).

Legend:
[1] = molecular target: full-length MALT1 protein (Strep-MALT1(1-824)-His) (Homo sapiens (Human), UniProt Q9UDY8); assay: MALT1 Biochemical Protease Assay (Ac-LRSR-AMC substrate); details: 10 nM FL MALT1, 200 μM Ac-LRSR-AMC, 4 h at RT; read-out: MALT1_Biochemical activity (Ac-LRSR-amc) IC50
In short: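 Fluorescence from AMC release off the quenched LRSR substrate was read after a 4 h reaction at RT. Values were normalised to no-enzyme and uninhibited controls and fitted for IC50 and Hill coefficient.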

[2] = tested on: IL6 secretion by OCI-LY3 ABC-DLBCL cells; assay: Human IL6 Mesoscale assay (OCI-LY3); assay type: cell-based; details: Homo sapiens, 24 h
In short: (§1)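 100,000 cells/well treated with compound in 9 twofold steps from 15 μM to 58.6 nM (0.3% DMSO) for 24 h at 37° C; supernatant cytokine measured by MSD electrochemiluminescence sandwich immunoassay. DMSO wells set maximum signal, BTK inhibitor RN486 (30 nM to 131 pM) set maximum inhibition.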

[3] = tested on: IL10 secretion by OCI-LY3 ABC-DLBCL cells; assay: Human IL10 Mesoscale assay (OCI-LY3); assay type: cell-based; details: Homo sapiens, 24 h
In short: as §1

Chain of full-length MALT1 protein (Strep-MALT1(1-824)-His) (Q9UDY8 whole entry): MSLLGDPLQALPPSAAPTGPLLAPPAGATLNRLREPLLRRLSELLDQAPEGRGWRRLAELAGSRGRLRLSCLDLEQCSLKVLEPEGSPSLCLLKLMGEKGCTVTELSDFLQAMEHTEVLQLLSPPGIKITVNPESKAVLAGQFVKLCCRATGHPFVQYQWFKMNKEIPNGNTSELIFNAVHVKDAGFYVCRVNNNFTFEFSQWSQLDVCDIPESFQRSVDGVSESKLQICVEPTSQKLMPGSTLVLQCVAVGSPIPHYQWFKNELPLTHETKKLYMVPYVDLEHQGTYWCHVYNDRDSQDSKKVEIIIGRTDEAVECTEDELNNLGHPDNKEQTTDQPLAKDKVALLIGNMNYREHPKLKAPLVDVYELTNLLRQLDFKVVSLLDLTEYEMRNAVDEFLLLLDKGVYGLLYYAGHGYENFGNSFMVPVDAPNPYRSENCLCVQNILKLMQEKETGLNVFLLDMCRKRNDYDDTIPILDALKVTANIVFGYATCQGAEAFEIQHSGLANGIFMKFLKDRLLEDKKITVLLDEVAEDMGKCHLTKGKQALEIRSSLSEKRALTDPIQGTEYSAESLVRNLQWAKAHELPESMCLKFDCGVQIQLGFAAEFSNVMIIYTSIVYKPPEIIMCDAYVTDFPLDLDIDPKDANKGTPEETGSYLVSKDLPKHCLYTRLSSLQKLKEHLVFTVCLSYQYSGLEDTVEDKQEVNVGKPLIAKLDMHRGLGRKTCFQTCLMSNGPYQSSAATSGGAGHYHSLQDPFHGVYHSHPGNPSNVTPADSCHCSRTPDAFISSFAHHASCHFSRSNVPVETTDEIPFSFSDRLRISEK

| SMILES | IC50 [1] [µM] | IC50 [2] [µM] | IC50 [3] [µM] |
| --- | --- | --- | --- |
| N#Cc1cc(NC(=O)c2cnn(-c3ccnc4cn[nH]c34)c2C(F)(F)F)cnc1-n1nccn1 [Cpd 262, N-(5-cyano-6-(2H-1,2,3-triazol-2-yl)pyridin-3-yl)-1-(1H-pyrazolo[4,3-b]pyridin-7-yl)-5-(trifluoromethyl)-1H-pyrazole-4-carboxamide] | 0.191 | 0.182 | 0.129 |
| Cc1cnn(-c2nc(C)c(NC(=O)c3cnn(-c4cccc5c(=O)[nH]ccc45)c3C(F)(F)F)cc2Cl)n1 [Cpd 359, N-(5-chloro-2-methyl-6-(4-methyl-2H-1,2,3-triazol-2-yl)pyridin-3-yl)-1-(1-oxo-1,2-dihydroisoquinolin-5-yl)-5-(trifluoromethyl)-1H-pyrazole-4-carboxamide] | 0.028 | 0.098 | 0.091 |
| Cn1ncc2ccnc(-n3ncc(C(=O)Nc4cnc(-n5nccn5)c(C#N)c4)c3C(F)(F)F)c21 [Cpd 259, N-(5-cyano-6-(2H-1,2,3-triazol-2-yl)pyridin-3-yl)-1-(1-methyl-1H-pyrazolo[3,4-c]pyridin-7-yl)-5-(trifluoromethyl)-1H-pyrazole-4-carboxamide] | 0.219 | 0.145 | 0.151 |
| COc1cc(NC(=O)c2cnn(-c3cccc4c(=O)[nH]ccc34)c2C(F)(F)F)ccn1 [Cpd 360, N-(2-methoxypyridin-4-yl)-1-(1-oxo-1,2-dihydroisoquinolin-5-yl)-5-(trifluoromethyl)-1H-pyrazole-4-carboxamide] | 2.69 | 0.02 | 0.02 |
| Cc1nc(-n2nccn2)c(Cl)cc1NC(=O)c1cnn(-c2cnc(N)c3ccccc23)c1C(F)(F)F [Cpd 180, 1-(1-aminoisoquinolin-4-yl)-N-(5-chloro-2-methyl-6-(2H-1,2,3-triazol-2-yl)pyridin-3-yl)-5-(trifluoromethyl)-1H-pyrazole-4-carboxamide] | 0.026 | 0.079 | 0.081 |
| C#Cc1cc(NC(=O)c2cnn(-c3cccc4c(=O)[nH]ccc34)c2C(F)(F)F)c(C)nc1-n1nccn1 [Cpd 190, N-(5-ethynyl-2-methyl-6-(2H-1,2,3-triazol-2-yl)pyridin-3-yl)-1-(1-oxo-1,2-dihydroisoquinolin-5-yl)-5-(trifluoromethyl)-1H-pyrazole-4-carboxamide] | 0.17 | 0.186 | 0.093 |
| O=C(Nc1cnc(-n2nccn2)c(Cl)c1)c1cnn(-c2cccc3cncn23)c1C(F)(F)F [Cpd 233, N-(5-chloro-6-(2H-1,2,3-triazol-2-yl)pyridin-3-yl)-1-(imidazo[1,5-a]pyridin-5-yl)-5-(trifluoromethyl)-1H-pyrazole-4-carboxamide] | 0.871 | 0.331 | 0.24 |
| N#Cc1cc(NC(=O)c2cnn(-c3cccc4nc(N)sc34)c2C(F)(F)F)cnc1-n1nccn1 [Cpd 282, 1-(2-aminobenzo[d]thiazol-7-yl)-N-(5-cyano-6-(2H-1,2,3-triazol-2-yl)pyridin-3-yl)-5-(trifluoromethyl)-1H-pyrazole-4-carboxamide] | 0.123 | 0.741 | 0.417 |
| Cn1ccc(-c2ncc(NC(=O)c3cnn(-c4ccc(F)c5ncccc45)c3C(F)(F)F)cc2Cl)n1 [Cpd 273, N-(5-chloro-6-(1-methyl-1H-pyrazol-3-yl)pyridin-3-yl)-1-(8-fluoroquinolin-5-yl)-5-(trifluoromethyl)-1H-pyrazole-4-carboxamide] | 0.145 | 0.085 | 0.066 |
| Cc1cc(-n2nccn2)c(Cl)cc1NC(=O)c1cnn(-c2cncc3c(F)cccc23)c1C(F)(F)F [Cpd 317, N-(5-chloro-2-methyl-4-(2H-1,2,3-triazol-2-yl)phenyl)-1-(8-fluoroisoquinolin-4-yl)-5-(trifluoromethyl)-1H-pyrazole-4-carboxamide] | 0.065 | 0.072 | 0.066 |
| O=C(Nc1cnc(-n2nnc3cccnc32)c(Cl)c1)c1cnn(-c2cccc3ncccc23)c1C(F)(F)F [Cpd 165, N-(6-(3H-[1,2,3]triazolo[4,5-b]pyridin-3-yl)-5-chloropyridin-3-yl)-1-(quinolin-5-yl)-5-(trifluoromethyl)-1H-pyrazole-4-carboxamide] | 0.245 | 0.447 | 0.339 |
| Nc1ncc(-n2ncc(C(=O)Nc3ccnc(C(F)(F)F)c3)c2C(F)(F)F)c2ccccc12 [Cpd 339, 1-(1-aminoisoquinolin-4-yl)-5-(trifluoromethyl)-N-(2-(trifluoromethyl)pyridin-4-yl)-1H-pyrazole-4-carboxamide] | 0.117 | 0.107 | 0.087 |
| Cc1cnn(-c2nc(C)c(NC(=O)c3cnn(-c4cnc(N)c5ccccc45)c3C(F)(F)F)cc2Cl)n1 [Cpd 341, 1-(1-aminoisoquinolin-4-yl)-N-(5-chloro-2-methyl-6-(4-methyl-2H-1,2,3-triazol-2-yl)pyridin-3-yl)-5-(trifluoromethyl)-1H-pyrazole-4-carboxamide] | 0.025 | 0.479 | 0.389 |
| CN(C=O)Cc1ncc(-n2ncc(C(=O)Nc3cnc(-n4nccn4)c(Cl)c3)c2C(F)(F)F)c2ccccc12 [Cpd 373, N-(5-chloro-6-(2H-1,2,3-triazol-2-yl)pyridin-3-yl)-1-(1-((N-methylformamido)methyl)isoquinolin-4-yl)-5-(trifluoromethyl)-1H-pyrazole-4-carboxamide] | 0.138 | 0.017 | 0.012 |
| O=C(Nc1cnc(-n2nccn2)c(Cl)c1)c1cnn(-c2cnc(C3CCCO3)c3ccccc23)c1C(F)(F)F (stereo not drawn) [Cpd 365, N-(5-chloro-6-(2H-1,2,3-triazol-2-yl)pyridin-3-yl)-1-(1-(tetrahydrofuran-2-yl)isoquinolin-4-yl)-5-(trifluoromethyl)-1H-pyrazole-4-carboxamide] | 0.06 | 0.025 | 0.024 |
| CN(C)C(=O)c1ncc(NC(=O)c2cnn(-c3cccc4c(=O)[nH]ccc34)c2C(F)(F)F)cc1Cl [Cpd 351, 3-chloro-N,N-dimethyl-5-(1-(1-oxo-1,2-dihydroisoquinolin-5-yl)-5-(trifluoromethyl)-1H-pyrazole-4-carboxamido)picolinamide] | 0.068 | 0.078 | 0.046 |
| N#Cc1cncc(NC(=O)c2cnn(-c3cccc4c(=O)[nH]ccc34)c2C(F)(F)F)c1 [Cpd 346, N-(5-cyanopyridin-3-yl)-1-(1-oxo-1,2-dihydroisoquinolin-5-yl)-5-(trifluoromethyl)-1H-pyrazole-4-carboxamide] | 0.275 | 0.457 | 0.224 |
| CCOc1ncc(-n2ncc(C(=O)Nc3cnc(-n4nccn4)c(Cl)c3)c2C(F)(F)F)c2ccccc12 [Cpd 422, N-(5-chloro-6-(2H-1,2,3-triazol-2-yl)pyridin-3-yl)-1-(1-ethoxyisoquinolin-4-yl)-5-(trifluoromethyl)-1H-pyrazole-4-carboxamide] | 0.011 | 0.191 | 0.174 |
| N#Cc1cc(NC(=O)c2cnn(-c3cccc4ncnn34)c2C(F)(F)F)cnc1-n1nccn1 [Cpd 274, 1-([1,2,4]triazolo[1,5-a]pyridin-5-yl)-N-(5-cyano-6-(2H-1,2,3-triazol-2-yl)pyridin-3-yl)-5-(trifluoromethyl)-1H-pyrazole-4-carboxamide] | 0.141 | 2.75 | 3.16 |
| O=C(Nc1cnc(-n2nccn2)c(Cl)c1)c1cnn(-c2cnc([C@H]3CCCO3)c3ccccc23)c1C(F)(F)F (single isomer, unassigned) [Cpd 436, (*R)—N-(5-chloro-6-(2H-1,2,3-triazol-2-yl)pyridin-3-yl)-1-(1-(tetrahydrofuran-2-yl)isoquinolin-4-yl)-5-(trifluoromethyl)-1H-pyrazole-4-carboxamide] | 1.32 | 0.141 | 0.11 |
| O=C(Nc1cnc(-n2nccn2)c(Cl)c1)c1cnn(-c2ccc3nccn3n2)c1C(F)(F)F [Cpd 242, N-(5-chloro-6-(2H-1,2,3-triazol-2-yl)pyridin-3-yl)-1-(imidazo[1,2-b]pyridazin-6-yl)-5-(trifluoromethyl)-1H-pyrazole-4-carboxamide] | 0.437 | 0.065 | 0.054 |
| Cc1nc(-n2nccn2)c(Cl)cc1NC(=O)c1cnn(-c2cncc3sccc23)c1C(F)(F)F [Cpd 321, N-(5-chloro-2-methyl-6-(2H-1,2,3-triazol-2-yl)pyridin-3-yl)-1-(thieno[2,3-c]pyridin-4-yl)-5-(trifluoromethyl)-1H-pyrazole-4-carboxamide] | 0.021 | 0.066 | 0.049 |
| O=C(Nc1cnc(-n2nccn2)c(Cl)c1)c1cnn(-c2cnc(C3COCCO3)c3ccccc23)c1C(F)(F)F (stereo not drawn) [Cpd 367, 1-(1-(1,4-dioxan-2-yl)isoquinolin-4-yl)-N-(5-chloro-6-(2H-1,2,3-triazol-2-yl)pyridin-3-yl)-5-(trifluoromethyl)-1H-pyrazole-4-carboxamide] | 0.11 | 0.115 | 0.098 |
| O=C(Nc1cnc(-n2nccn2)c(Cl)c1)c1cnn(-c2cnc(C(F)F)c3ccccc23)c1C(F)(F)F [Cpd 394, N-(5-chloro-6-(2H-1,2,3-triazol-2-yl)pyridin-3-yl)-1-(1-(difluoromethyl)isoquinolin-4-yl)-5-(trifluoromethyl)-1H-pyrazole-4-carboxamide] | 0.095 | 0.05 | 0.036 |
